Assay results taken from the CheMixHub viscosity set.
± gives the uncertainty stated by the source.

Assay: xn = mol fraction of the nth substance listed

O=S(=O)([O-])c1ccc(O)cc1.[Na+] + O
viscosity [mPa·s], 101 kPa
Settings	x1 = 9e-05	x1 = 0.00018	x1 = 0.0009	x1 = 0.0018	x1 = 0.00448	x1 = 0.00893	x1 = 0.0133	x1 = 0.0177
298.15 K	0.899 ± 0.009	0.9 ± 0.009	0.915 ± 0.009	0.931 ± 0.009	0.988 ± 0.01	1.085 ± 0.011	1.196 ± 0.01	1.321 ± 0.011
318.15 K	0.598 ± 0.006	0.599 ± 0.006	0.608 ± 0.006	0.62 ± 0.006	0.656 ± 0.006	0.715 ± 0.007	0.786 ± 0.007	0.86 ± 0.008

C1CCCCC1 + CC(C)O
303.15 K, 101.33 kPa
Settings	viscosity [mPa·s]
x2 = 0.098	0.8169 ± 0.021
x2 = 0.2003	0.8387 ± 0.021
x2 = 0.3097	0.8861 ± 0.022
x2 = 0.3997	0.9325 ± 0.023
x2 = 0.4969	0.9831 ± 0.024
x2 = 0.6009	1.063 ± 0.026
x2 = 0.7025	1.174 ± 0.029
x2 = 0.8004	1.313 ± 0.032

COC(C)=O + ClC(Cl)Cl
303.15 K, 101.3 kPa
Settings	viscosity [mPa·s]
x1 = 0.1026	0.5228 ± 0.0036
x1 = 0.2027	0.525 ± 0.0037
x1 = 0.3012	0.5197 ± 0.0036
x1 = 0.4009	0.5018 ± 0.0035
x1 = 0.5028	0.4782 ± 0.0034
x1 = 0.6033	0.4508 ± 0.0033
x1 = 0.7158	0.4176 ± 0.0031
x1 = 0.813	0.3893 ± 0.0029
x1 = 0.8983	0.3686 ± 0.0028

O=C(O)c1ccccc1 + CO
viscosity [mPa·s]
Settings	298.15 K	303.15 K	308.15 K	313.15 K	318.15 K
101 kPa, x1 = 0.15	–	1.196 ± 0.0098	–	–	0.9466 ± 0.0081
101 kPa, x1 = 0.151	1.311 ± 0.035	1.196 ± 0.032	1.098 ± 0.029	1.014 ± 0.027	0.9466 ± 0.025
101 kPa, x1 = 0.16	–	1.29 ± 0.01	–	–	1.002 ± 0.0088
101 kPa, x1 = 0.179	–	1.36 ± 0.036	1.25 ± 0.033	1.147 ± 0.03	1.053 ± 0.028
101 kPa, x1 = 0.18	–	1.36 ± 0.011	–	–	1.053 ± 0.0091
101 kPa, x1 = 0.2	–	–	–	–	1.133 ± 0.0094
101.33 kPa, x1 = 0.15	1.311 ± 0.0092	1.196 ± 0.0084	1.098 ± 0.0077	1.014 ± 0.0071	0.9466 ± 0.0066
101.33 kPa, x1 = 0.1514	–	1.196 ± 0.032	–	–	0.9466 ± 0.025
101.33 kPa, x1 = 0.1626	–	1.29 ± 0.034	–	–	1.002 ± 0.027
101.33 kPa, x1 = 0.1788	–	1.36 ± 0.036	–	–	1.053 ± 0.028
101.33 kPa, x1 = 0.18	–	1.36 ± 0.0095	1.25 ± 0.0087	1.147 ± 0.008	1.053 ± 0.0074
101.33 kPa, x1 = 0.1961	–	–	–	–	1.133 ± 0.03

COc1ccccc1N + CCCCO
viscosity [mPa·s], 101 kPa
Settings	x1 = 0.1085	x1 = 0.1811	x1 = 0.2605	x1 = 0.3474	x1 = 0.4771	x1 = 0.5867	x1 = 0.6665	x1 = 0.7526	x1 = 0.8949
303.15 K	2.547 ± 0.059	2.719 ± 0.062	2.91 ± 0.067	3.123 ± 0.071	3.448 ± 0.078	3.729 ± 0.084	3.943 ± 0.088	4.18 ± 0.093	4.597 ± 0.1
308.15 K	2.267 ± 0.053	2.431 ± 0.056	2.611 ± 0.06	2.813 ± 0.064	3.12 ± 0.071	3.388 ± 0.077	3.59 ± 0.081	3.815 ± 0.086	4.205 ± 0.094
313.15 K	2.036 ± 0.048	2.194 ± 0.051	2.365 ± 0.055	2.554 ± 0.059	2.846 ± 0.065	3.103 ± 0.07	3.297 ± 0.074	3.516 ± 0.079	3.895 ± 0.087
318.15 K	1.83 ± 0.043	1.981 ± 0.047	2.143 ± 0.05	2.322 ± 0.054	2.598 ± 0.06	2.847 ± 0.065	3.036 ± 0.069	3.247 ± 0.073	3.609 ± 0.081

OC[C@H](O)C(O)[C@@H](O)CO + OC[C@@H](O)[C@@H](O)CO
101 kPa, x1 = 0.36
Settings	viscosity [mPa·s]
293.2 K	1329000
298.2 K	611700
303.2 K	294200
308.1 K	154700
313.2 K	79520
318.2 K	42740
323 K	23480
